Patent publication US7928113B2, “Integrin-binding small molecules” (University of Southern California, priority 2005, dated 2011)
Read-outs that look alike come from different tables or passages of the source.

Legend:
[1] = Cytotoxicity MTT assay, NCI-H1975; assay type: cell-based, human; conditions: human, NCI-H1975 non-small cell lung cancer cells; NCI-H1975, Table 5
From the text: (§1) Cell Culture. Human breast cancer cells (MCF-7, αvβ3—, overexpressed wild-type p53, ER+; MDA-MB 468, p53 mutant, ER+; and MDA-MB-435, αvβ3+, p53 mutant, ER−) and non-small cell lung cancer cells H1975 were obtained from the American Type Cell Culture (Rockville, Md. Q4). The HEY human ovarian carcinoma cell line naturally resistant to cisplatin (CDDP) was kindly provided by Dr. Dubeau (University of Southern California Norris Cancer Center). Cells were maintained as monolayer cultures in RPMI 1640 supplemented with 10% fetal bovine serum (Gemini-Bioproducts, Woodland, Calif.) and 2 mmol/L L-glutamine at 37° C. in a humidified atmosphere of 5% CO2. To remove the adherent cells from the flask for passaging and counting, cells were washed with PBS without calcium or magnesium, incubated with a small volume of 0.25% trypsin-EDTA solution (Sigma, St. Louis, Mo.) for 5 to 10 minutes, and washed with culture medium and centrifuged. All experiments were done using cells in exponential cell growth.
(§2) Cytotoxicity Assay. Cytotoxicity was assessed by 3-(4,5-dimethylthiazol-2-yl)-2,5-diphenyltetrazolium bromide (MTT) assay as previously described.^41, 54 Briefly, cells were seeded in 96-well microtiter plates and allowed to attach. Cells were subsequently treated with a continuous exposure to the corresponding drug for 72 hours. An MTT solution (at a final concentration of 0.5 mg/mL) was added to each well and cells were incubated for 4 hours at 37° C. After removal of the medium, DMSO was added and the absorbance was read at 570 nm. All assays were done in triplicate. The IC50 was then determined for each drug from a plot of log (drug concentration) versus percentage of cell kill.
(§3) Cytotoxicity of Selected Compounds in a Panel of Cancer Cell lines. Initially, we tested all compounds in two breast cancer cell lines MDA-MB-435 and MCF7 with high and low αvβ3 expression as well as in HEY ovarian cancer cell line naturally resistant to cisplatin. […] We observed a remarkable specificity for some of the compounds against these cells. […] Considering the fact that αvβ3 mediates migration, attachment and apoptosis of cancer cells, the combination of these novel high affinity antagonists with conventional cytotoxic drugs should show improved therapeutic benefits without additional toxicity.
(§4) NVX-188 was tested for cytotoxicity by MTT assays in two breast cancer cell lines, MDA-MB-435 with high αvβ3 integrin expression and MCF7 with low αvβ3 integrin expression, and an ovarian cancer cell line, HEY, which was used to test for cell growth inhibition evidence. NVX-188 was further evaluated in a lung cancer cell line, NCI-H1975, and a mouse fibroblast, NIH3T3. NVX-188 was not cytotoxic at the highest dose level tested (20 uM).

[2] = Cytotoxicity MTT assay, NIH3T3; assay type: cell-based, mouse; conditions: mouse, NIH3T3 fibroblasts; NIH3T3, Table 5
Method: as §2, §3, §4

[3] = Cytotoxicity MTT assay, HEY; assay type: cell-based, human; conditions: human, HEY ovarian carcinoma cells; HEY, Table 5
From the text: as §1, §2, §3, §4

[4] = tested on: HEY ovarian cancer cell line; test: Cytotoxicity MTT assay, HEY; assay type: cell-based, human; conditions: for inhibition at 20 µM: Homo sapiens, HEY, 72 h MTT, read-out: % inhibition of cell growth at 20 μM, HEY
From the text: as §1, §2, §3, §4

αvβ3 integrin = target: T1, αvβ3 integrin (Homo sapiens, UniProt P05106+P06756); test: Receptor binding assay, competitive binding with 125I-labeled echistatin on the surface of NCI-H1975 cells; conditions: for IC50 / αvβ3 binding affinity (in words): 125I-echistatin competition, NCI-H1975 cells; for fold higher affinity than the parent compound AV26: ratio of αvβ3 binding IC50 to AV26
T1 construct: endogenous in cells; host or cells: NCI-H1975 cells (non-small cell lung cancer), whole cells in suspension
Method: Receptor Binding Assay. […] 96-Well multiscreen DV plate (filter pore size: 0.65 μm, Millipore, Billerica, Mass.) was incubated with ^125I-echistatin (50,000 cpm/well) in the presence of increasing concentrations of αvβ3 antagonists. The total incubation volume was adjusted to 200 μL. After the cells were incubated for 3 h at room temperature, the plate was filtered through multiscreen vacuum manifold and washed twice with cold binding buffer. The hydrophilic PVDF filters were collected, and the radioactivity was determined using NaI(Tl) gamma counter (Packard, Meriden, Conn.). The best-fit IC50 values were calculated by fitting the data by nonlinear regression using GraphPad Prism (GraphPad Software, Inc., San Diego, Calif.). Experiments were carried out with triplicate samples.
αvβ3 Binding. Receptor binding affinity of all compounds on the surface of non-small cell lung cancer NCI-H1975 cells was determined in competitive binding experiments using ^125I-labeled echistatin as radioligand and the results are presented in Table 3. […] These compounds represent a novel set of antagonists with diverse structural scaffolds. […] This is an important feature considering the highly electrostatic nature of the RGD peptide binding region of αvβ3. The RGD peptide forms strong electrostatic interactions through its two charged ends with αvβ3 in the αvβ3-cyclic RGD peptide complex crystal structure. Compounds AV3, AV27, and AV32 broadly fall into a RGD mimetic antagonist category, since they have a carboxylate group or amine/amide group, at either ends that can establish similar electrostatic interactions with αvβ3. Additionally, presence of several hydrophilic functional groups on these compounds favors their interaction with the highly electrostatic region of the RGD binding site of αvβ3. Given these interesting structural features, we tested additional structurally close analogues of AV27 and AV32. However, substructure search queries using the core scaffolds of these compounds in our in-house databases yield no close analogues. Structure-activity studies around the core scaffolds of these two compounds might be an alternative option to further optimize their binding affinity towards αvβ3. […] We carried out a limited structure-activity relationship (SAR) analysis on compound AV26 by testing compounds AV34-AV38 in our binding assay (Table 3). The substructure search using the core scaffold of AV26 as a search query retrieved few compounds from our in-house database of 359,224 compounds. The analogues AV34-AV38 were purchased from Chemical Diversity (San Diego, Calif.) and screened for their αvβ3 binding affinity. […] Studies are also underway to selectively deliver cytotoxic agents such as paclitaxel to αvβ3 overexpressing cancers through covalent conjugation.
Receptor binding affinity of NVX-188 was determined through a competitive binding experiment using ^125I-radiolabeled echistatin on NCI-H1975 cells. Increasing concentrations of NVX-188 were added with a fixed amount of echistatin to determine the concentration of NVX-188 that prevents 50% of the echistatin from binding to αvβ3 integrin on the cell surface (i.e., IC50).

[5] = Cytotoxicity MTT assay, MCF7; assay type: cell-based, human; conditions: human, MCF-7 breast cancer cells; MCF-7, Table 5
From the text: as §1, §2, §3, §4

[6] = tested on: MCF7 breast cancer cell line; test: Cytotoxicity MTT assay, MCF7; assay type: cell-based, human; conditions: for inhibition at 20 µM: Homo sapiens, MCF7, 72 h MTT, read-out: % inhibition of cell growth at 20 μM, MCF7
From the text: as §1, §2, §3, §4

[7] = Cytotoxicity MTT assay, MDA-MB-435; assay type: cell-based, human; conditions: human, MDA-MB-435 breast cancer cells; MDA-MB-435, Table 5
From the text: as §1, §2, §3, §4

[8] = tested on: MDA-MB-435 breast cancer cell line; test: Cytotoxicity MTT assay, MDA-MB-435; assay type: cell-based, human; conditions: for inhibition at 20 µM: Homo sapiens, MDA-MB-435, 72 h MTT, read-out: % inhibition of cell growth at 20 μM, 435
From the text: as §1, §2, §3, §4

[9] = tested on: NCI-H1975 lung cancer cell-line; test: Cytotoxicity MTT assay, NCI-H1975; assay type: cell-based, human; conditions: Table B
From the text: as §1, §2, §3, §4

NIH3T3 mouse fibroblast = test: Cytotoxicity MTT assay, NIH3T3; assay type: cell-based; conditions: Table B
Method: as §2, §3, §4

[10] = tested on: panel of cancer cell lines; test: Cytotoxicity MTT assay, statements on the whole panel of cell lines; assay type: cell-based; conditions: for cytotoxicity (in words): MTT, panel of cell lines, highest dose tested 20 uM; for specificity of cytotoxicity among the cell lines (in words): five cell lines of Table 5
Method: as §2, §3, §4

[11] = read-out: αvβ3 binding affinity (IC50)

IC50 (αvβ3 integrin; [11]) [pM]	fold higher affinity than the parent compound AV26 (αvβ3 integrin) [fold]	Compound	IC50 at 72 h [1] [µM]	IC50 at 72 h [2] [µM]	IC50 at 72 h [3] [µM]	inhibition at 20 µM [4] [%]	IC50 at 72 h [5] [µM]	inhibition at 20 µM [6] [%]	IC50 at 72 h [7] [µM]	inhibition at 20 µM [8] [%]	cytotoxicity (in words) [10]	specificity of cytotoxicity among the cell lines (in words) [10]	further results
24000	10	CCOc1ccc(/N=C2/S/C(=C\c3ccc(N(C)C)cc3)C(=O)N2CC)cc1 [AV35]	> 20	> 20	> 20	17	> 20	36	> 20	26			
	800	COc1cc(Cl)c(/C=C2\S/C(=N/c3cccc(C(=O)O)c3)N(C)C2=O)cc1OC [AV38]	> 20	> 20	> 20	0	> 20	18	> 20	0	not cytotoxic		IC50 [9]: > 20 µM; IC50 (NIH3T3 mouse fibroblast): > 20 µM; IC50 ([4]; Table B): > 20 µM; αvβ3 binding affinity (in words) (αvβ3 integrin): high-affinity binding characteristics at picomolar concentrations; αvβ3 binding affinity (in words) (αvβ3 integrin; listed as NVX-188): active at picomolar concentrations; IC50 (αvβ3 integrin; same value restated in pM, read-out: αvβ3 integrin binding affinity (IC50)): 30 pM; IC50 ([6]; Table B): > 20 µM; IC50 ([8]; Table B): > 20 µM
240000		CCOc1cc(/C=C2\S/C(=N/c3ccc(C(=O)O)cc3)N(C)C2=O)ccc1O [AV26]	> 20	> 20	13 ± 8	51	> 20	37	0.34 ± 0.06	94	considerable cytotoxicity in a breast cancer cell line		fold selectivity for MDA-MB-435 cells as compared to the HEY cells ([8]; cytotoxicity IC50 ratio): ~40 fold; fold selectivity for MDA-MB-435 cells as compared to the MCF7, NIH3T3, and CRL5908 cells ([8]; cytotoxicity IC50 ratio): more than 60 fold
		O=C(O)c1cccc(-c2ccc(/C=N/Nc3nc4nonc4nc3Nc3ccc(F)cc3)o2)c1 [AV30]	> 20	13 ± 3	7 ± 0.42	90	19 ± 4	52	8 ± 0.5	71		a profile very similar in MDA-MB-435, HEY, and NIH3T3 cells, but was significantly less active against MCF-7 and NCI-H1975 cells	
52000		Nc1nc(O)c2nc(CCCNc3ccc(C(=O)NC(CCC(=O)O)C(=O)O)cc3)cnc2n1 (centres unmarked) [AV3]	> 20	> 20	> 20	0	> 20	0	> 20	0			
		CN(C)c1ccc(/C=C2\SC(=Nc3ccc(O)cc3)NC2=O)cc1 [AV34]			> 20	25	> 20	31	2.8 ± 0.01	65		A similar trend, but smaller magnitude	
